Reference: article PMC11173382, “In Vitro Investigations into the Potential Drug Interactions of Pseudoginsenoside DQ Mediated by Cytochrome P450 and Human Drug Transporters” (Molecules, 2024)

Target: T1, hBCRP (Homo sapiens, UniProt Q9UNQ0)
T1 construct: purchased GenoMembrane DNAIG03; host or cells: Sf9 insect cell membrane vesicles
T1 sequence (Q9UNQ0 1-655): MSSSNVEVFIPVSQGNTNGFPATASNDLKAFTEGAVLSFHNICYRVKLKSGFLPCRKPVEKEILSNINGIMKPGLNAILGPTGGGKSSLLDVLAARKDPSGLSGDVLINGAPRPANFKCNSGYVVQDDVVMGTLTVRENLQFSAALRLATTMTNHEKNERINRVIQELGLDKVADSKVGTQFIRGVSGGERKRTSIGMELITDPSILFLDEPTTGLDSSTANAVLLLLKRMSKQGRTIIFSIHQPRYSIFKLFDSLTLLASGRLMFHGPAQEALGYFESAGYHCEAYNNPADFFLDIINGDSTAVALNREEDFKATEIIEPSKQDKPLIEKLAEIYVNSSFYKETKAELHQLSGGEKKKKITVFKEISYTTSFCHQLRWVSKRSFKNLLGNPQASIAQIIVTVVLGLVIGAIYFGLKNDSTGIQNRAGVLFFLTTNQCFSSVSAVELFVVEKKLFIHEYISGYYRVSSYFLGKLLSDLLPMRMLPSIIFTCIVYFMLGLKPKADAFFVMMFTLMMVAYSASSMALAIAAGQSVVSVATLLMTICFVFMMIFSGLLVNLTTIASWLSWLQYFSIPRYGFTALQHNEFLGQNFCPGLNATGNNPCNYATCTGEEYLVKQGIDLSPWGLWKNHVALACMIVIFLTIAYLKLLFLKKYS
Assay: Vesicular transport assay with sf9-BCRP vesicles (3H-ES)
Format: in vitro ADME
Settings: for Transport activity of BCRP (main text: percentage inhibition): negative control = 100%
Description: Drug transporters mediate the cellular uptake and efflux of their substrates. Therefore, cell lines overexpressing a drug transporter can be utilized to investigate inhibitors of the transporter by assessing changes in substrate uptake. For each drug transporter, we selected a well-characterized inhibitor as the positive control. Radiolabeled substrates were used to indicate the decrease in transport efficiency when the drug transporters were inhibited by PDQ or the control inhibitors.
The concentrations of the control drugs and the substrates were stated in the assay details. Working solutions of the control inhibitors, the radiolabeled substrates, and each dose of PDQ were prepared at 200 times (200×) more concentrated solutions with DMSO for further dilution.
Transporter-overexpressed cell lines. Human organic anion transporter-overexpressed cell lines MDCKII-OAT1 and S2-OAT3, human organic anion transport polypeptide-overexpressed cell lines HEK293A-OATP1B1 and HEK293A-OATP1B3, human organic cation transporter 2-overexpressed cell line S2-OCT2, and human multi-drug resistance protein MDR1 (or P-gp)-overexpressed cell line MDCKII-MDR1 were gifts from Japan Fuji Biomedical Co., Ltd. (Fuji, Shizuoka Prefecture, Japan). Breast cancer resistance protein-overexpressed vesicles (sf9-BCRP vesicle) were purchased from GenoMembrane Co., Ltd. (Yokohama, Kanagawa, Japan).
Vesicular transport assay with the sf9-BCRP model. Vesicular transport assay was conducted to measure the interaction between PDQ and the efflux transporter BCRP, using sf9-BCRP vesicles (Cat. No, DNAIG03, GenoMembrane, Yokohama, Kanagawa, Japan). The modulation of ^3H-ES transport reflects the level of the drug-transporter interaction.
The MgATP working solution was prepared by diluting the 200 mM stock solution with the transport buffer, while the reduced glutathione solution was made by dissolving glutathione (0.615 g) in 8 mL deionized water and adjusting the pH to 6.8 with 2M NaOH. The drug solution in the reaction mix was replaced with […] of transport buffer as the negative control mix. These reaction mixes were pre-incubated at 37 °C before use. All reagents were thawed on ice, and deionized water was used for the preparation.
The membrane suspension was gently mixed with ice-cold transport buffer and aliquoted to 1.5 mL centrifuge tubes on ice. Each tube contained […] of vesicles ([…] BCRP) and […] of transport buffer. The vesicle-containing tubes were pre-incubated at 37 °C for 5 min. Then, the reaction mixes were added to the tubes to initiate the assay. To terminate the reaction after 5 min, […] of washing buffer (40 mM MOPS-Tris and 70 mM KCl) was added to each tube on ice. The samples were then transferred to the filter and filtered. The filters were washed with 5 mL of cold washing buffer three times. Subsequently, the filters were placed at the bottom of the counting vials, and the scintillation cocktail was added. The filter and the cocktail were vigorously vortexed to mix. The remaining radiation in the samples was then measured with the scintillation counter. Each sample was replicated three times (N = 3).
In = [100 × (U − U0)/(Uc − U0)]%(3)
The results were expressed as mean ± standard deviation (SD) and analyzed with GraphPad Prism 8.0 software (CA, USA). The IC50 of PDQ was curve-fitted with the FORECAST function. Statistical significance was calculated using a two-tailed test, and a p value < 0.05 was considered as significant.

CC(C)(O)[C@@H]1CC[C@@](C)([C@H]2CC[C@]3(C)[C@@H]2[C@H](O)C[C@@H]2[C@@]4(C)CC[C@H](O)C(C)(C)[C@@H]4CC[C@]23C)O1 [PDQ, (20S,24S)-dammar-20,24-epoxy-3β, 12β, 25-triol]
DPM (3H-ES transport by BCRP) (inhibitor 0.1 μM): 5303.7±176.6 DPM
Transport activity of BCRP (main text: percentage inhibition) (inhibitor 0.1 μM): 96.1±3.2%
DPM (3H-ES transport by BCRP) (inhibitor 0.3 μM): 2995.3±288.8 DPM
Transport activity of BCRP (main text: percentage inhibition) (inhibitor 0.3 μM): 54.3±5.2%
DPM (3H-ES transport by BCRP) (inhibitor 1 μM): 2788.3±479.5 DPM
Transport activity of BCRP (main text: percentage inhibition) (inhibitor 1 μM): 50.5±8.7%
DPM (3H-ES transport by BCRP) (inhibitor 3 μM): 2352.7±355.1 DPM
Transport activity of BCRP (main text: percentage inhibition) (inhibitor 3 μM): 42.7±6.4%
DPM (3H-ES transport by BCRP) (inhibitor 10 μM): 1997.3±185.1 DPM
Transport activity of BCRP (main text: percentage inhibition) (inhibitor 10 μM): 36.2±3.4%
DPM (3H-ES transport by BCRP) (inhibitor 30 μM): 1911.0±179.5 DPM
IC50 (sf9-BCRP vesicles, 3H-ES 1 µM, 5 min): 1.08 µM
